# The source made the active and inactive calls. No cut-off for these calls is given here.
# What was measured:
# Escherichia coli = test: Antibacterial activity against Escherichia coli NIH-JC2 at 30 microg/mL; assay type: functional, organism-based
# Candida albicans = test: Antifungal activity against Candida albicans IFO1594 at 30 microg/mL; assay type: functional, organism-based
# MCF7 = test: Cytotoxicity against human MCF7 cells after 48 hrs by MTT assay; assay type: functional, cell-based; details: MCF7, 48 h
# HeLa = test: Cytotoxicity against human HeLa cells after 48 hrs by MTT assay; assay type: functional, cell-based
# Micrococcus luteus = test: Antibacterial activity against Micrococcus luteus ATCC 9343; assay type: functional
MIC (Micrococcus luteus) [µg/mL],Structure (SMILES),inhibition (Escherichia coli),inhibition (Candida albicans),IC50 (MCF7) [µM],IC50 (HeLa) [µM]
15,CC(C)=CCOc1cc(C)c2c(OCC=C(C)C)cc(=O)oc2c1 [MARIANIN A],inactive,inactive,39,34
30,C=CC(C)(C)CC(=O)c1c(C)cc(OCC=C(C)C)cc1O [MARIANIN B],inactive,inactive,> 100,> 100
